These results are taken from PMC12603985, “Dissimilar Reactions and Enzymes for Psilocybin Biosynthesis in Inocybe and Psilocybe Mushrooms” (Angewandte Chemie (International Ed. in English), 2025).

A word on the Km: it is the substrate concentration at which the rate is half of its maximum.

Common to all, as to type: biochemical, Inocybe corydalina
Test [1] has as its system T1, IpsK.
T1 construct: N-terminally hexahistidine-tagged; recombinant, purified
As to the kind of experiment: Michaelis-Menten kinetics of phosphotransfer. The note with it: phosphate donor ATP; product assays in TRIS-HCl pH 7.5.

In test [2] the test system is T2, IpsM1.
T2 construct: heterologously produced and purified
In words: Michaelis-Menten kinetics of methyl transfer. The conditions noted are these: methyl donor SAM; product assays in TRIS-HCl pH 7.5.

Test [3] concerns T3, IpsM2.
T3 construct: heterologously produced and purified
In words: Michaelis-Menten kinetics of methyl transfer. The note with it: methyl donor SAM; product assays in TRIS-HCl pH 7.5.

Test [4] has as its system T4, IpsD.
T4 construct: obligate dimer predicted by the model; PLP lysine K300
In words: Michaelis-Menten kinetics of decarboxylation. The note with it: PLP-dependent.

Take `CN(C)CCc1c[nH]c2cccc(O)c12` [compound 4, psilocin]: the Michaelis-Menten constant (Km) in test [1] was found to be 20.5 µM.

`CNCCc1c[nH]c2cccc(O)c12` [compound 10, 10]: the Km was 138 µM in test [2], 433 µM in test [3] and 337 µM in test [1]. `NCCc1c[nH]c2cccc(O)c12` [compound 5, 4-hydroxytryptamine]: the Km in test [2] was determined as 101 µM; in test [3], 64.5 µM. For the molecule `N[C@@H](Cc1c[nH]c2cccc(O)c12)C(=O)O` [compound 7, 4-hydroxy-L-tryptophan], the Km in test [4] came out at 66 µM.
